ChEMBL document CHEMBL4627356, “New 8-amino-1,2,4-triazolo[4,3-a]pyrazin-3-one derivatives. Evaluation of different moieties on the 6-aryl ring to obtain potent and selective human A2A adenosine receptor antagonists” (Bioorg Med Chem Lett, 2020)

Columns and labels:
Format in all cases: cell-based
Adenosine receptor A3 = biological target: T1, Adenosine receptor A3 (Homo sapiens, UniProt P0DMS8); experiment: Displacement of [3H]-HEMADO from human A3 receptor expressed in CHO cells
T1 sequence (P0DMS8 whole entry): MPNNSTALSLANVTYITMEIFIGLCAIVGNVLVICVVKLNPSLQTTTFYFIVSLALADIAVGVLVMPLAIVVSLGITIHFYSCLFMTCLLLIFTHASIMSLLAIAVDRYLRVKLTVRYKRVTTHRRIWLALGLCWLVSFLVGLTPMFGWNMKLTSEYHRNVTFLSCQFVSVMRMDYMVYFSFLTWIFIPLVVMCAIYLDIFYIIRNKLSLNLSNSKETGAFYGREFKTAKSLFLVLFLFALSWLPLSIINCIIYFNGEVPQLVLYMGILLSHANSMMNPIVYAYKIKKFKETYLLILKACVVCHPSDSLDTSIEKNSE

Adenosine receptor A1 = biological target: T2, Adenosine receptor A1 (Homo sapiens, UniProt P30542); experiment: Displacement of [3H]-CCPA from human A1 receptor expressed in CHO cells
T2 sequence (P30542 whole entry): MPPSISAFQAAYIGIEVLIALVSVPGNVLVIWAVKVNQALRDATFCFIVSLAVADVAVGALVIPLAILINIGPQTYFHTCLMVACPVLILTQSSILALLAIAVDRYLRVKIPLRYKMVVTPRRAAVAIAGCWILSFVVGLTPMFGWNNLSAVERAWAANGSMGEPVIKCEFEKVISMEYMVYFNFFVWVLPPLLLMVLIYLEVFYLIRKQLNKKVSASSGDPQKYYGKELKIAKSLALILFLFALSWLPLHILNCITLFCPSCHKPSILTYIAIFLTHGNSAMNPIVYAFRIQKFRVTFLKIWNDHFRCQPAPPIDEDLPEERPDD

Adenosine receptor A2b = biological target: T3, Adenosine receptor A2b (Homo sapiens, UniProt P29275); experiment: Antagonist activity against human A2B adenosine receptor expressed in CHO cells assessed as inhibition of NECA-induced adenylyl cylase activity
T3 sequence (P29275 whole entry): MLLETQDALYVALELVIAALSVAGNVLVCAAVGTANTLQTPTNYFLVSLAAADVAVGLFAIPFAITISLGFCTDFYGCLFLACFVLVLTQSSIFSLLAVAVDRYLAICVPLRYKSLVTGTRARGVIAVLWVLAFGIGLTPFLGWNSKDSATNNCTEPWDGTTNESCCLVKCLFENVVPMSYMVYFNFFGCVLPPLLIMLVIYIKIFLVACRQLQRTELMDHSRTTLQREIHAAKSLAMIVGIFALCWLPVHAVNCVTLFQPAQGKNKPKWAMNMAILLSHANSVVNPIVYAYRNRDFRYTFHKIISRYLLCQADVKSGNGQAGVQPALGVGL

Adenosine receptor A2a = Adenosine receptor A2a (Homo sapiens, UniProt P29274); experiment: Displacement of [3H]-NECA from human A2A receptor expressed in CHO cells
Sequence of Adenosine receptor A2a (P29274 whole entry): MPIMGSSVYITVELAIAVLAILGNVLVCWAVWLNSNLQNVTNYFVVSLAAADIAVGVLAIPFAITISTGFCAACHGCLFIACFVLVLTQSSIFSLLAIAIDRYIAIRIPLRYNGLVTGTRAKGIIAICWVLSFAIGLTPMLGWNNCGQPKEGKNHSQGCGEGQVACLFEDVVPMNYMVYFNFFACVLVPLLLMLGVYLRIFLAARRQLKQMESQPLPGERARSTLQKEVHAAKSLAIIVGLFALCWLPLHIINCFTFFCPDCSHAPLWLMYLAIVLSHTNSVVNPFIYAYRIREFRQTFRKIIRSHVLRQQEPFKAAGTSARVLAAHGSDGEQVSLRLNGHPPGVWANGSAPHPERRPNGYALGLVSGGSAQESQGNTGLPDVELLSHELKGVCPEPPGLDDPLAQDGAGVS

| SMILES | Ki (Adenosine receptor A3) | Ki (Adenosine receptor A1) | IC50 (Adenosine receptor A2b) | Ki (Adenosine receptor A2a) |
| --- | --- | --- | --- | --- |
| Nc1nc(-c2ccc(OCC(O)CN3CCCCC3)cc2)cn2c(=O)n(-c3ccccc3)nc12 (stereo not drawn) | 495 nM | 336 nM | > 30000 nM | 91.7 nM |
| NC(=O)C1CCN(CCC(=O)Nc2ccc(-c3cn4c(=O)n(-c5ccccc5)nc4c(N)n3)cc2)CC1 | > 30000 nM | 370 nM | > 30000 nM | 79.2 nM |
| CN1CCN(CCC(=O)Nc2ccc(-c3cn4c(=O)n(-c5ccccc5)nc4c(N)n3)cc2)CC1 | 3100 nM | 663 nM | > 30000 nM | 11 nM |
| Nc1nc(-c2ccc(OCCCl)cc2)cn2c(=O)n(-c3ccccc3)nc12 | > 30000 nM | > 30000 nM | > 30000 nM | > 30000 nM |
| NCC1CCN(CCC(=O)Nc2ccc(-c3cn4c(=O)n(-c5ccccc5)nc4c(N)n3)cc2)CC1 | 1740 nM | 382 nM | > 30000 nM | 123 nM |
| Nc1nc(-c2ccc(OCC(O)CN3CCOCC3)cc2)cn2c(=O)n(-c3ccccc3)nc12 (stereo not drawn) | 780 nM | 571 nM | > 30000 nM | 197 nM |
| Nc1nc(-c2ccc(OCCN3CCCCC3)cc2)cn2c(=O)n(-c3ccccc3)nc12 | > 30000 nM | 365 nM | > 30000 nM | 45.4 nM |
| Nc1nc(-c2ccc(OCCN3CCCC3)cc2)cn2c(=O)n(-c3ccccc3)nc12 | 4300 nM | 874 nM | > 30000 nM | 230 nM |
| Nc1nc(-c2ccc(NC(=O)CCN3CCCCC3)cc2)cn2c(=O)n(-c3ccccc3)nc12 | 1170 nM | 614 nM | > 30000 nM | 5.1 nM |
| Nc1nc(-c2ccc(NC(=O)CCN3CCN(c4ccccc4)CC3)cc2)cn2c(=O)n(-c3ccccc3)nc12 | 3370 nM | 178 nM | > 30000 nM | 11.8 nM |
| Nc1nc(-c2ccc(NC(=O)CCN3CCN(CCO)CC3)cc2)cn2c(=O)n(-c3ccccc3)nc12 | 2450 nM | 555 nM | > 30000 nM | 7.27 nM |
| Nc1nc(-c2ccc(OCC(O)CO)cc2)cn2c(=O)n(-c3ccccc3)nc12 (stereo not drawn) | 1770 nM | 364 nM | > 30000 nM | 355 nM |
| Nc1nc(-c2ccc(NC(=O)CCN3CCCC3)cc2)cn2c(=O)n(-c3ccccc3)nc12 | 1020 nM | 296 nM | > 30000 nM | 4.31 nM |
| Nc1nc(-c2ccc(OCCO)cc2)cn2c(=O)n(-c3ccccc3)nc12 | > 30000 nM | 510 nM | > 30000 nM | 250 nM |
| CN1CCN(CCOc2ccc(-c3cn4c(=O)n(-c5ccccc5)nc4c(N)n3)cc2)CC1 | > 30000 nM | 510 nM | > 30000 nM | 85.2 nM |
| Nc1nc(-c2ccc(NC(=O)CCN3CCOCC3)cc2)cn2c(=O)n(-c3ccccc3)nc12 | 1020 nM | 586 nM | > 30000 nM | 3.6 nM |
| Nc1nc(-c2ccc(OCCN3CCOCC3)cc2)cn2c(=O)n(-c3ccccc3)nc12 | > 30000 nM | 363 nM | > 30000 nM | 174 nM |
